Measured values from the NIST ThermoML archive (doi:10.1021/je049762q).
Numbers after ± are expanded uncertainties.

What was measured:
[1] = Molar enthalpy of transition or fusion

Compound | Triple point temperature (Crystal) | Molar enthalpy of transition or fusion ([1]; Crystal) | Triple point temperature (Crystal 1) | Triple point temperature (Crystal 2) | Triple point temperature (Crystal 3) | Molar enthalpy of transition or fusion ([1]; Crystal 1) | Molar enthalpy of transition or fusion ([1]; Crystal 2) | Molar enthalpy of transition or fusion ([1]; Crystal 3)
Brc1ccc(Br)cc1 [1,4-dibromobenzene] | 360.48 ± 0.09 K | 4.873 ± 0.0158 kcal/mol | – | – | – | – | – | –
Clc1ccc(Cl)cc1 [1,4-dichlorobenzene] | – | – | 326.24 ± 0.09 K | 306 ± 2 K | 275 ± 0.4 K | 4.28 ± 0.0153 kcal/mol | 0.0433 ± 0.0122 kcal/mol | 0.296 ± 0.0122 kcal/mol
Clc1cc(Cl)cc(Cl)c1 [1,3,5-trichlorobenzene] | 335.92 ± 0.09 K | 4.196 ± 0.0215 kcal/mol | – | – | – | – | – | –
Brc1cc(Br)cc(Br)c1 [1,3,5-tribromobenzene] | 394.96 ± 0.16 K | 5.191 ± 0.0122 kcal/mol | – | – | – | – | – | –
